Measured values reported in ChEMBL document CHEMBL1130889, “The synthesis and biological evaluation of a novel series of indole PDE4 inhibitors I” (Bioorg Med Chem Lett, 1998).

Assays:
PBMC [1] = assay: Inhibition of tumor necrosis factor-alpha release from activated human monocyte cells in the presence of RP73401.; type: functional, cell-based
[2] = target: Phosphodiesterase 4 (Cavia porcellus); assay: Inhibitory activity against Phosphodiesterase type IV (PDE4) obtained from guinea-pig macrophage was evaluated
PBMC [3] = assay: Inhibition of tumor necrosis factor-alpha release from activated human monocyte cells.; type: functional, cell-based
[4] = target: Phosphodiesterase 4 (Cavia porcellus); assay: Binding affinity against PDE4 was determined using [3H]- rolipram in guinea pig brain membrane binding assay
Mus musculus = assay: Inhibition of LPS-induced tumor necrosis factor-alpha (TNF-alpha) production in mice at 50 mg/kg; type: functional
PBMC [5] = assay: Inhibition of tumor necrosis factor-alpha release from activated human monocyte cells at […]; type: functional, cell-based
[6] = Terminal half life was evaluated in mice after intravenous administration; type: ADME, organism-based; conditions: mouse, in vivo
[7] = Maximum plasma concentration was evaluated in mice after oral administration; type: ADME, organism-based; conditions: mouse, read-out: Cp max
[8] = Terminal half life was evaluated in mice after oral administration; type: ADME, organism-based; conditions: mouse, in vivo
[9] = Volume of distribution was evaluated in mice after intravenous administration; type: ADME, organism-based; conditions: mouse, in vivo, read-out: Vdss
[10] = Bioavailability was evaluated in mice after oral administration; type: ADME, organism-based; conditions: mouse, in vivo, read-out: Bioavailabiility
[11] = Area under the curve was evaluated in mice after oral administration; type: ADME, organism-based; conditions: mouse, in vivo
[12] = Maximum time required to reach Cp max was evaluated in mice after oral administration; type: ADME, organism-based; conditions: mouse, plasma
[13] = Area under the curve was evaluated in mice after intravenous administration; type: ADME, organism-based; conditions: mouse, in vivo
[14] = Clearance was evaluated in mice after intravenous administration; type: ADME, organism-based; conditions: mouse, in vivo
PBMC [15] = assay: Inhibition of tumor necrosis factor-alpha release from activated human monocyte cells at 0.3 uM; type: functional, cell-based

Q: Which results are given for `Cc1cn(Cc2ccc(S(C)(=O)=O)cc2)c2cc(C(=O)Nc3c(Cl)cncc3Cl)ccc12`?
A: IC50 (PBMC [1]): > 1 nM; IC50 [2]: 200 nM; IC50 (PBMC [3]): 134 nM; Ki [4]: 300 nM; inhibition in vivo at 50 mg/kg (Mus musculus): 0%

Q: Which IC50 (PBMC [1]) does the source give for `Cc1cn(Cc2ccccc2)c2cc(C(=O)Nc3c(Cl)cncc3Cl)ccc12` here?
A: The IC50 was 4 nM.

Q: And the IC50 [2]?
A: Its IC50 is 18 nM.

Q: And the IC50 (PBMC [3])?
A: Its IC50 is 23 nM.

Q: What about the Ki [4] of the same molecule?
A: Its Ki is 135 nM.

Q: And the inhibition in vivo at 50 mg/kg (Mus musculus)?
A: The inhibition in vivo at 50 mg/kg was 0%.

Q: Which IC50 [2] does the source give for `CCc1cn(S(=O)(=O)c2ccc(C)cc2)c2cc(C(=O)Nc3c(Cl)cncc3Cl)ccc12` here?
A: The IC50 was 2900 nM.

Q: And the Ki [4]?
A: Its Ki is greater than 3745 nM.

Q: For `Cc1cn(Cc2cccc3ccccc23)c2cc(C(=O)Nc3c(Cl)cncc3Cl)ccc12`, which IC50 (PBMC [1]) is on record?
A: Its IC50 is 10 nM.

Q: And the IC50 [2]?
A: The IC50 was 46 nM.

Q: And the IC50 (PBMC [3])?
A: The IC50 was 1300 nM.

Q: And the Ki [4]?
A: Its Ki is 60 nM.

Q: Which IC50 [2] does the source give for `COc1ccccc1Cn1cc(C)c2ccc(C(=O)Nc3c(Cl)cncc3Cl)cc21` here?
A: The IC50 was 80 nM.

Q: What about the Ki [4] of the same molecule?
A: The Ki was 54 nM.

Q: Which IC50 (PBMC [1]) does the source give for `Cc1cn(CCc2ccccc2)c2cc(C(=O)Nc3c(Cl)cncc3Cl)ccc12` here?
A: The IC50 was 0.9 nM.

Q: What about the IC50 [2] of the same molecule?
A: Its IC50 is 70 nM.

Q: And the IC50 (PBMC [3])?
A: The IC50 was 8 nM.

Q: And the Ki [4]?
A: Its Ki is 280 nM.

Q: For `CCCCCCCn1cc(C)c2ccc(C(=O)Nc3c(Cl)cncc3Cl)cc21`, which IC50 (PBMC [1]) is on record?
A: Its IC50 is 3 nM.

Q: And the IC50 [2]?
A: Its IC50 is 25 nM.

Q: What about the IC50 (PBMC [3]) of the same molecule?
A: The IC50 was 11 nM.

Q: What about the Ki [4] of the same molecule?
A: Its Ki is 66 nM.

Q: What about the inhibition in vivo at 50 mg/kg (Mus musculus) of the same molecule?
A: The inhibition in vivo at 50 mg/kg was 22%.

Q: Which IC50 (PBMC [1]) does the source give for `Cc1cn(CCCc2ccccc2)c2cc(C(=O)Nc3c(Cl)cncc3Cl)ccc12` here?
A: Its IC50 is 3 nM.

Q: What about the IC50 [2] of the same molecule?
A: The IC50 was 25 nM.

Q: And the IC50 (PBMC [3])?
A: The IC50 was 168 nM.

Q: And the Ki [4]?
A: Its Ki is 41 nM.

Q: What about the inhibition in vivo at 50 mg/kg (Mus musculus) of the same molecule?
A: Its inhibition in vivo at 50 mg/kg is 17%.

Q: For `Cc1cn(C2CCCC2)c2cc(C(=O)Nc3c(Cl)cncc3Cl)ccc12`, which IC50 (PBMC [1]) is on record?
A: The IC50 was 3 nM.

Q: What about the IC50 [2] of the same molecule?
A: The IC50 was 15 nM.

Q: What about the IC50 (PBMC [5]) of the same molecule?
A: Its IC50 is 30 nM.

Q: And the Ki [4]?
A: The Ki was 374 nM.

Q: For `Cc1cn(CC2CCCCC2)c2cc(C(=O)Nc3c(Cl)cncc3Cl)ccc12`, which IC50 (PBMC [1]) is on record?
A: Its IC50 is 8 nM.

Q: What about the IC50 [2] of the same molecule?
A: Its IC50 is 100 nM.

Q: What about the IC50 (PBMC [3]) of the same molecule?
A: The IC50 was 200 nM.

Q: What about the Ki [4] of the same molecule?
A: Its Ki is 120 nM.

Q: And the inhibition in vivo at 50 mg/kg (Mus musculus)?
A: The inhibition in vivo at 50 mg/kg was 0%.

Q: For `Cc1cn(CCC2CCCCC2)c2cc(C(=O)Nc3c(Cl)cncc3Cl)ccc12`, which IC50 (PBMC [1]) is on record?
A: The IC50 was 0.7 nM.

Q: What about the IC50 [2] of the same molecule?
A: The IC50 was 3.2 nM.

Q: And the IC50 (PBMC [3])?
A: Its IC50 is 2 nM.

Q: And the Ki [4]?
A: The Ki was 21 nM.

Q: And the inhibition in vivo at 50 mg/kg (Mus musculus)?
A: Its inhibition in vivo at 50 mg/kg is 0%.

Q: Which half-life [6] does the source give for `COc1ccc(Cn2cc(C)c3ccc(C(=O)Nc4c(Cl)cncc4Cl)cc32)cc1` here?
A: The half-life was 2.6 h.

Q: And the Cmax [7]?
A: The Cmax was 9.9 ng/mL.

Q: And the half-life [8]?
A: The half-life was 1.7 h.

Q: What about the Vd [9] of the same molecule?
A: Its Vd is 2.4 L/kg.

Q: What about the IC50 (PBMC [1]) of the same molecule?
A: Its IC50 is 3 nM.

Q: What about the IC50 (PBMC [3]) of the same molecule?
A: The IC50 was 60 nM.

Q: And the bioavailability [10]?
A: The bioavailability was 3.7%.

Q: And the AUC [11]?
A: Its AUC is 25.3 ng·h/mL.

Q: What about the Tmax [12] of the same molecule?
A: Its Tmax is 0.5 h.

Q: What about the inhibition in vivo at 50 mg/kg (Mus musculus) of the same molecule?
A: Its inhibition in vivo at 50 mg/kg is 20%.

Q: What about the AUC [13] of the same molecule?
A: The AUC was 678 ng·h/mL.

Q: What about the clearance [14] of the same molecule?
A: Its clearance is 24.7 mL/min/kg.

Q: What does the source list for `COc1cccc(Cn2cc(C)c3ccc(C(=O)Nc4c(Cl)cncc4Cl)cc32)c1`?
A: IC50 [2]: 60 nM; Ki [4]: 75 nM

Q: For `Cc1nc(Cn2cc(C)c3ccc(C(=O)Nc4c(Cl)cncc4Cl)cc32)cs1`, which IC50 (PBMC [1]) is on record?
A: The IC50 was 1.5 nM.

Q: And the IC50 [2]?
A: The IC50 was 42 nM.

Q: And the IC50 (PBMC [3])?
A: Its IC50 is 24.1 nM.

Q: And the Ki [4]?
A: Its Ki is 24 nM.

Q: What about the inhibition in vivo at 50 mg/kg (Mus musculus) of the same molecule?
A: The inhibition in vivo at 50 mg/kg was 0%.

Q: For `Cc1c[nH]c2cc(C(=O)Nc3c(Cl)cncc3Cl)ccc12`, which IC50 [2] is on record?
A: The IC50 was 5 nM.

Q: For `COc1ccc(C(=O)Nc2c(Cl)cncc2Cl)cc1OC1CCCC1`, which ED50 (Mus musculus) is on record?
A: The ED50 was 10 mg/kg.

Q: What does the source list for `Cc1cn(Cc2ccc3ccccc3c2)c2cc(C(=O)Nc3c(Cl)cncc3Cl)ccc12`?
A: IC50 (PBMC [1]): 10.5 nM; IC50 [2]: 5.2 nM; IC50 (PBMC [3]): 90 nM; Ki [4]: 7 nM; inhibition in vivo at 50 mg/kg (Mus musculus): 0%

Q: Which results are given for `Cc1noc(C)c1Cn1cc(C)c2ccc(C(=O)Nc3c(Cl)cncc3Cl)cc21`?
A: IC50 (PBMC [1]): 18 nM; IC50 [2]: 187 nM; IC50 (PBMC [3]): 580 nM; Ki [4]: 75 nM; inhibition in vivo at 50 mg/kg (Mus musculus): 0%

Q: Which IC50 (PBMC [1]) does the source give for `Cc1cn(Cc2cccc([N+](=O)[O-])c2)c2cc(C(=O)Nc3c(Cl)cncc3Cl)ccc12` here?
A: The IC50 was 2 nM.

Q: And the IC50 [2]?
A: Its IC50 is 52 nM.

Q: And the IC50 (PBMC [3])?
A: The IC50 was 34 nM.

Q: What about the Ki [4] of the same molecule?
A: Its Ki is 75 nM.

Q: And the inhibition in vivo at 50 mg/kg (Mus musculus)?
A: Its inhibition in vivo at 50 mg/kg is 16%.

Q: Which results are given for `Cc1cn(Cc2ccc(C(N)=O)cc2)c2cc(C(=O)Nc3c(Cl)cncc3Cl)ccc12`?
A: IC50 (PBMC [1]): < 1 nM; IC50 [2]: 300 nM; IC50 (PBMC [3]): 53 nM; Ki [4]: 220 nM; inhibition in vivo at 50 mg/kg (Mus musculus): 0%

Q: What does the source list for `Cc1ccc(S(=O)(=O)n2cc(C)c3ccc(C(=O)Nc4c(Cl)cncc4Cl)cc32)cc1`?
A: IC50 (PBMC [1]): 3 nM; IC50 [2]: 45 nM; IC50 (PBMC [3]): 300 nM; Ki [4]: 712 nM; inhibition in vivo at 50 mg/kg (Mus musculus): 0%

Q: What does the source list for `Cc1cn(CCCC2CCCCC2)c2cc(C(=O)Nc3c(Cl)cncc3Cl)ccc12`?
A: IC50 (PBMC [1]): 0.7 nM; IC50 [2]: 220 nM; IC50 (PBMC [3]): 12 nM; Ki [4]: 187 nM; inhibition in vivo at 50 mg/kg (Mus musculus): 27%

Q: What does the source list for `Cc1cn(CCN2CCOCC2)c2cc(C(=O)Nc3c(Cl)cncc3Cl)ccc12`?
A: IC50 (PBMC [15]): 28 nM; IC50 (PBMC [1]): 3 nM; IC50 [2]: 380 nM; Ki [4]: 172 nM

Q: With `Cc1ccc(S(=O)(=O)n2cc(Cc3ccccc3)c3ccc(C(=O)Nc4c(Cl)cncc4Cl)cc32)cc1` as the molecule, how does the IC50 [2] read?
A: Its IC50 is greater than 10000 nM.

Q: And the Ki [4]?
A: The Ki was greater than 3745 nM.
